Holding throughout (format): cell-based
The test system of test [1] is Trypanosoma brucei brucei (Lister 427) strain. The test is described as follows: Assay for growth inhibition against Trypanosoma brucei brucei (Cell TiterGlo ATP luminescence). The following applies: Trypanosoma brucei, T. brucei brucei (Lister 427); read-out: T. Brucei (HAT) EC50. The gist of the method: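 Growth read-out is cellular ATP by CellTiter-Glo luminescence, measured 30 min after reagent addition, following 2-day incubation at 37 °C in CO2. Parasites (10,000/mL, HMI-9 plus 10% FBS and 10% serum plus) faced 10 threefold dilutions in duplicate; IC50 taken as 50% growth inhibition versus untreated.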
On the technique in general: Cellular ATP, detected with luciferase, serves as a proxy for viable cell number.

Test [2] relates to L. donovani HU3 strain in mouse peritoneal macrophages. The test is described as follows: Assay for inhibition of parasitemia of Leishmania donovani in mouse macrophages (SYBR Green nuclei count, high-content imaging). To be noted: Leishmania donovani, Peritoneal macrophage, L. donovani in mouse peritoneal macrophages; read-out: L. donovani in Mouse Macrophages EC50. The text has this: Assay for Inhibition of Parasitemia of Leishmania donovani in Mouse Macrophages
The assay measures the increase in the parasite number in the assayed plate well using a DNA intercalating dye, SYBR Green I® dye (INVITROGEN) to stain Leishmania cell nuclei. L. donovani HU3 strain is propagated by infecting BALB/c mice through tail vein injection with 10^7 Leishmania parasites. Infected mice are allowed to develop infection during 9-11 weeks post-infection. During this time, the parasites accumulate in the infected mouse spleens to large numbers, and the infected mice serve as the source of parasites for the in vitro measurement of compound efficacies. To assay a compound for anti-leishmanial activity, peritoneal macrophages isolated from non-infected BALB/c mice are seeded into 384-well plates at density 2×10^4 macrophages per well in […] of medium (RPM11640, 10% fetal serum albumin, 10 mM HEPES, 1 mM sodium pyruvate, 1% Pen/Strep). Subsequently, the seeded plates are placed into an incubator set to maintain 37° C. temperature and atmosphere with 5% CO2.
The next day, Leishmania parasites are isolated from the spleens of mice infected for 9-11 weeks and 4×10^5 isolated parasites in […] of the above media are added to each plate well. Plates are then returned into incubators and infection is allowed to proceed for 24 hours. After the infection of macrophages is completed, […] of compounds of the invention in the above medium, which also contains 5% DMSO, are added to plate wells containing infected macrophages. At the same time control compounds (miltefosine and amphotericin B) and DMSO are added to plates to serve as the positive and negative controls, respectively. After the compound addition, the plates are returned into incubator and cells infected with parasites are cultured for 5 days. At the end of cultivation, […] of 8% paraformaldehyde is added to plate wells and incubated for 15 min at room temperature. Following the incubation, the paraformaldehyde from plate wells is aspirated, and […] of PBS containing 0.2% Triton X-100 is added to wells. After 15 min incubation, the solution is aspirated from wells again, and replaced with Sybr® Green Dye solution in PBS (1:125,000 dilution). Infected cells are imaged with Evotec Opera high-content microscope, and the number of parasites in well is determined by counting parasite nuclei visualized by staining with Sybr® Green dye.

The subject of test [3] is Leishmania donovani axenic amastigote. As to the kind of experiment: In vitro assay for growth inhibition of Leishmania donovani axenic amastigote (Cell TiterGlo luminescence). To be noted: Leishmania donovani, L. donovani axenic amastigotes in vitro; read-out: L. donovani amastigotes EC50. The gist of the method:
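Compound-treated wells received 9600 axenic amastigotes in RPMI 1640-based medium at pH 5.5 (37 °C, 5% CO2). Growth measured as ATP luminescence (CellTiter-Glo) after 2-day incubation; DMSO and reference compounds served as controls.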

Test [4] relates to Trypanosoma cruzi amastigotes cultured in 3T3 fibroblast cells. The test is described as follows: Assay for growth inhibition of kinetoplastid parasite Trypanosoma cruzi (beta-galactosidase Tulahuen strain, CPRG readout). To be noted: Trypanosoma cruzi, Fibroblast, T. cruzi amastigotes in 3T3 fibroblast cells; read-out: Buckner infectious T. cruzi EC50. The gist of the method: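 3T3 fibroblasts (1,000 cells/well) plated overnight, treated with compound in DMSO, then infected with 10,000 Lac-Z-expressing Tulahuen trypomastigotes. After 6 days, 0.6 mM CPRG with 0.6% NP-40 added for 2 h at room temperature; absorbance gives relative intracellular amastigote numbers. Benznidazole and nifurtimox serve as positive controls.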

pEC50: −log10 of the molar value. Some results are limits rather than exact numbers.

Drawing on patent publication US11384078B2, “5,6-fused-bicyclic compounds and compositions for the treatment of parasitic diseases” (NOVARTIS AG, priority 2017, dated 2022), this text covers EC50 for 18 compounds.

What is called pEC50 is the EC50 on a negative log10 scale, so that one unit is a factor of ten. Consider `O=C(Nc1ccc(F)c(-n2cc3cc(C4CCCCC4)cnc3n2)c1)N1CC(F)C1` [Compound 19, N-(3-{5-cyclohexyl-2H-pyrazolo[3,4-b]pyridin-2-yl}-4-fluorophenyl)-3-fluoroazetidine-1-carboxamide], for which the negative logarithm of the EC50 (pEC50) was above 7.64 in test [1], 7.09 in test [2], 7.96 in test [3] and 7.96 in test [4].

Take `O=C(Nc1ccc(F)c(-n2cc3cc(C4CCC4)cnc3n2)c1)N1CC(F)C1` [Compound 20, N-(3-{5-cyclobutyl-2H-pyrazolo[3,4-b]pyridin-2-yl}-4-fluorophenyl)-3-fluoroazetidine-1-carboxamide]: the negative-log EC50 (pEC50) in test [1] was above 7.64; in test [2], 7.43; in test [3], 8.00; in test [4] it was 8.38.

With `CC(C)(C)Cc1cnc2nn(-c3cc(NC(=O)N4CC(F)C4)ccc3F)cc2c1` [Compound 21, N-{3-[5-(2,2-dimethylpropyl)-2H-pyrazolo[3,4-b]pyridin-2-yl]-4-fluorophenyl}-3-fluoroazetidine-1-carboxamide], the pEC50 was above 7.64 in test [1], 8.19 in test [2], 8.11 in test [3] and 8.77 in test [4].

Turning to `CC(C)(C)c1cnc2nn(-c3cc(NC(=O)N4CC(F)C4)ccc3F)cc2c1` [Compound 22, N-(3-{5-tert-butyl-2H-pyrazolo[3,4-b]pyridin-2-yl}-4-fluorophenyl)-3-fluoroazetidine-1-carboxamide], the pEC50 is above 7.64 in test [1], 4.68 in test [2], 7.55 in test [3] and 8.14 in test [4].

For the compound `CCCC(C)c1cnc2nn(-c3cc(NC(=O)N4CC(F)C4)ccc3F)cc2c1` (stereo not drawn) [Compound 23, 3-fluoro-N-{4-fluoro-3-[5-(pentan-2-yl)-2H-pyrazolo[3,4-b]pyridin-2-yl]phenyl}azetidine-1-carboxamide], the pEC50 in test [1] was above 7.64; in test [2] it was 6.96; in test [3] it was 6.85; in test [4], 7.11.

As for `CCC(C)(C)c1cnc2nn(-c3cc(NC(=O)N4CC(F)C4)ccc3F)cc2c1` [Compound 24, 3-fluoro-N-{4-fluoro-3-[5-(2-methylbutan-2-yl)-2H-pyrazolo[3,4-b]pyridin-2-yl]phenyl}azetidine-1-carboxamide], the pEC50 in test [1] is 6.21; in test [2] it was 6.00; in test [3], 6.06; in test [4], 6.36.

Consider `CCC(C)c1cnc2nn(-c3cc(NC(=O)N4CC(F)C4)ccc3F)cc2c1` (stereo not drawn) [Compound 25, N-{3-[5-(butan-2-yl)-2H-pyrazolo[3,4-b]pyridin-2-yl]-4-fluorophenyl}-3-fluoroazetidine-1-carboxamide], for which the pEC50 in test [1] was above 7.64; in test [2], 7.33; in test [3], 7.68; in test [4] it was 7.77.

As to `CC(C)CCc1cnc2nn(-c3cc(NC(=O)N4CC(F)C4)ccc3F)cc2c1` [Compound 27, 3-fluoro-N-{4-fluoro-3-[5-(3-methylbutyl)-2H-pyrazolo[3,4-b]pyridin-2-yl]phenyl}azetidine-1-carboxamide], the pEC50 is above 7.64 in test [1], 7.82 in test [2], 7.48 in test [3] and 7.42 in test [4].

`O=C(Nc1ccc(F)c(-n2cc3cc(-c4ccccn4)cnc3n2)c1)N1CC(F)C1` [Compound 28, 3-fluoro-N-{4-fluoro-3-[5-(pyridin-2-yl)-2H-pyrazolo[3,4-b]pyridin-2-yl]phenyl}azetidine-1-carboxamide]: the pEC50 is above 7.64 in test [1], 8.70 in test [2], 8.89 in test [3] and 9.00 in test [4].

On to `O=C(Nc1ccc(F)c(-n2cc3cc(C4CC4)cnc3n2)c1)N1CC(F)(F)C1` [Compound 29, N-(3-{5-cyclopropyl-2H-pyrazolo[3,4-b]pyridin-2-yl}-4-fluorophenyl)-3,3-difluoroazetidine-1-carboxamide], for which the pEC50 is above 7.64 in test [1], 8.01 in test [2], 8.09 in test [3] and 7.96 in test [4].

Take `CC(C)(C)Cc1cnc2nn(-c3cc(NC(=O)N4CC(F)(F)C4)ccc3F)cc2c1` [Compound 32, N-{3-[5-(2,2-dimethylpropyl)-2H-pyrazolo[3,4-b]pyridin-2-yl]-4-fluorophenyl}-3,3-difluoroazetidine-1-carboxamide]: the pEC50 in test [1] was above 7.64; in test [2], 7.89; in test [3], 7.92; in test [4], 8.30.

Regarding `CC(C)(C)c1cnc2nn(-c3cc(NC(=O)N4CC(F)(F)C4)ccc3F)cc2c1` [Compound 33, N-(3-{5-tert-butyl-2H-pyrazolo[3,4-b]pyridin-2-yl}-4-fluorophenyl)-3,3-difluoroazetidine-1-carboxamide], the pEC50 in test [1] was 6.55; in test [2], 6.25; in test [3] it was 6.54; in test [4], 6.14.

With `CCCC(C)c1cnc2nn(-c3cc(NC(=O)N4CC(F)(F)C4)ccc3F)cc2c1` (stereo not drawn) [Compound 34, 3,3-difluoro-N-{4-fluoro-3-[5-(pentan-2-yl)-2H-pyrazolo[3,4-b]pyridin-2-yl]phenyl}azetidine-1-carboxamide], the pEC50 in test [1] was 6.82; in test [2], 6.57; in test [3], 6.70; in test [4], 6.80.

As for `CCC(C)(C)c1cnc2nn(-c3cc(NC(=O)N4CC(F)(F)C4)ccc3F)cc2c1` [Compound 35, 3,3-difluoro-N-{4-fluoro-3-[5-(2-methylbutan-2-yl)-2H-pyrazolo[3,4-b]pyridin-2-yl]phenyl}azetidine-1-carboxamide], the pEC50 is 6.07 in test [1], 6.28 in test [2], 6.24 in test [3] and 6.42 in test [4].

Consider `CC(C)CCc1cnc2nn(-c3cc(NC(=O)N4CC(F)(F)C4)ccc3F)cc2c1` [Compound 38, 3,3-difluoro-N-{4-fluoro-3-[5-(3-methylbutyl)-2H-pyrazolo[3,4-b]pyridin-2-yl]phenyl}azetidine-1-carboxamide], for which the negative logarithm of the EC50 (pEC50) in test [1] was 7.62; in test [2], 7.48; in test [3], 7.51; in test [4], 7.21.

Consider `O=C(Nc1ccc(F)c(-n2cc3cc(-c4ccccn4)cnc3n2)c1)N1CC(F)(F)C1` [Compound 39, 3,3-difluoro-N-(4-fluoro-3-(5-(pyridin-2-yl)-2H-pyrazolo[3,4-b]pyridin-2-yl)phenyl)azetidine-1-carboxamide], for which the pEC50 in test [1] was above 7.64; in test [2], 8.42; in test [3] it was 8.62; in test [4] it was 8.70.

In the case of `O=C(Nc1ccc(F)c(-n2cc3cc(C4CC4)cnc3n2)c1)N1CC[C@@H](F)C1` [Compound 42, (3R)-N-(3-{5-cyclopropyl-2H-pyrazolo[3,4-b]pyridin-2-yl}-4-fluorophenyl)-3-fluoropyrrolidine-1-carboxamide], the pEC50 in test [1] is above 7.64; in test [2], 8.22; in test [3], 8.52; in test [4], 8.74.

With `CC(C)(C)Cc1cnc2nn(-c3cc(NC(=O)N4CC[C@@H](F)C4)ccc3F)cc2c1` [Compound 46, (3R)-N-{3-[5-(2,2-dimethylpropyl)-2H-pyrazolo[3,4-b]pyridin-2-yl]-4-fluorophenyl}-3-fluoropyrrolidine-1-carboxamide], the pEC50 in test [1] was above 7.64; in test [2] it was 8.46; in test [3] it was 8.08; in test [4], 8.77.
